US20260284046A1, “PYRIDAZINE COMPOUNDS FOR TREATMENT OF FIBROTIC DISEASES” (GEORG-AUGUST-UNIVERSITAET GOETTINGEN STIFTUNG OEFFENTLICHEN …, priority 2023, published 2026)

What was measured:
[1] = tested on: human dermal fibroblasts HRO159N; experiment: ELISA of secreted pro-collagen I alpha 1, human dermal fibroblasts HRO159N; type: cell-based; details: 48 h, 250 μg
Experimental: (§1) Compounds reconstitution and stock solution: Prior to treatment, DMSO was diluted in PMS until 0.1% DMSO was made. Each compound was solved in 0.1% DMSO (3: 2.5 mg/mL, 1: 2.5 mg/mL, 10: 1 mg/mL, 5: 1 mg/mL, 7: 0.6 mg/mL, 16: 1 mg/mL 17: 1 mg/mL, 44: 0.6 mg/mL, 36: 1 mg/mL.
(§2) Next the different stock solution with 150 μg and 250 μg of each compound per 1 ml culture solution was made by adding the 0.1% DMSO compound solution in the right amount to culture solution (DMEM with 10% FCS and 1% penicillin-streptomycin).
Three different cell lines were used for the experiments. GM637 is an immortalized cell line originated from human skin fibroblasts, bought in 2001, UKE1 and […] are cell lines originated from human dermal fibroblasts (dog ear) nurtured from patients, between 60 and 80 years old being completely anonymized at the clinic for dermatology, Rostock.
(§3) The cells lines were thawed and were cultured in Dulbecco's modified Eagle's medium (DMEM, Gibcon, USA) supplemented with 10% fetal bovine serum (FBS, Gibco, Germany) and 1% penicillin-streptomycin (PS, Gibco, USA) at 37° C. in a humidified atmosphere with 5% CO2 until a sufficient number of cells were culture in T75 culture bottles. After reaching a confluence of 80% to 90%, the cells were separated using trypsin and counted. Next 100.000 cells were planted in each well of a 6 well plate in replicates, washed and the DMEM solution with 150 μg and 250 μg/ml substance/DMEM and DMEM with no substance as control was added.
(§4) After 48 h and after 72 h 100 μl supernatant of each well was taken, labelled and frozen at −20° degree Celsius. Prior to perform ELISA the medium was depending on the cell line diluted 1:50 or 1:100 with PBS, otherwise the concentration of collagen fibers was too high to be measured.
The media containing the secretion of the different human dermal fibroblasts GM637, UKE1, and HRO159N were collected after 48 h and 72 h treatment. Secretion of pro-collagen 1 was assessed with human pro-collagen I alpha 1 DuoSet ELISA (R&D systems, USA) To prepare the Elisa plate, Human pro-Collagen I α capture antibody was diluted in ELISA plate-coating buffer at 4 μg/mL working concentration. 100 μl of diluted Capture antibody was added to 96-well microplates and incubated over night at room temperature. After three times washing with Wash Buffer, microplates were blocked by adding 300 μl of Reagent Diluent for 1 hour at room temperature. To proceed the ELISA Human pro-collagen I α1 Standards were diluted in Reagent Diluent (range between […]) and 100 μl of standards or conditioned mediums were added to designated wells. Microplates were incubated at room temperature for 2 hours. Human Pro-collagen I α1 Detection Antibody was prepared in Reagent Diluent at […] working concentration and 100 μl of diluted Detection Antibody was applied for 2 hours at room temperature after extensive washing. Then, working solution of Streptavidin-HRP with Reagent Diluent was prepared by diluting 1:40 and added into each well. After 20 minutes at room temperature incubation, microplates were washed and applied with 100 μl of Substrate Solution for 20 minutes followed by Stop Solution after washing. Finally, signals were measured at 450 nm absorbance by PHomo Microplate Reader (Autobio, China) The amount of pro-collagen 1 was quantified by extrapolating the signal into a linear range of a pro-collagen 1 standard curve. Screening compounds were typically tested at concentration of 150 and 250 μg/mL. The dose response data for each compound and the different cell lines were obtained by nonlinear regression analysis using Prism 9 software (GraphPad, La Jolla, USA).

[2] = tested on: human lung fibroblast MRCVI; experiment: ELISA of secreted pro-collagen I alpha 1, human lung fibroblast MRCVI; type: cell-based; details: 48 h, 250 μg
Experimental: as §1, §2
As cell line MRCV1 was used, which is an immortalized cell line originated from human lung fibroblast, bought in 2001.
as §3, with “cell line was” for “cells lines were”, “and” for “and were”
as §4
The medium containing the secretion of the human lung fibroblast MRCVI was collected after 48 h and 72 h treatment. Secretion of pro-collagen 1 was assessed with human pro-collagen I alpha 1 DuoSet ELISA (R&D systems, USA) To prepare the Elisa plate, Human pro-Collagen I α capture antibody was diluted in ELISA plate-coating buffer at 4 μg/mL working concentration. 100 μl of diluted Capture antibody was added to 96-well microplates and incubated over night at room temperature. After three times washing with Wash Buffer, microplates were blocked by adding 300 μl of Reagent Diluent for 1 hour at room temperature. To proceed the ELISA Human pro-collagen I α1 Standards were diluted in Reagent Diluent (range between […]) and 100 μl of standards or conditioned mediums were added to designated wells. Microplates were incubated at room temperature for 2 hours. Human Pro-collagen I α1 Detection Antibody was prepared in Reagent Diluent at […] working concentration and 100 μl of diluted Detection Antibody was applied for 2 hours at room temperature after extensive washing. Then, working solution of Streptavidin-HRP with Reagent Diluent was prepared by diluting 1:40 and added into each well. After 20 minutes at room temperature incubation, microplates were washed and applied with 100 μl of Substrate Solution for 20 minutes followed by Stop Solution after washing. Finally, signals were measured at 450 nm absorbance by PHomo Microplate Reader (Autobio, China) The amount of pro-collagen 1 was quantified by extrapolating the signal into a linear range of a pro-collagen 1 standard curve. Screening compounds were typically tested at concentration of 150 and 250 μg/mL. The dose response data for each compound and the different cell lines were obtained by nonlinear regression analysis using Prism 9 software (GraphPad, La Jolla, USA).

| SMILES | collagen reduction percentage in comparison to the standard (100%) [1] [%] | collagen reduction percentage in comparison to the standard (100%) [2] [%] |
| --- | --- | --- |
| Cc1nnc2c3cscc3cnn12 [Compound 16, 3-Methylthieno[3,4-d][1,2,4]triazolo[4,3-b]pyridazine] | 79 | 43 |
| CC(C)Oc1nn2nnnc2c2c(Cl)cccc12 [Compound 44, 10-chloro-6-isopropoxytetrazolo[5,1-a]phthalazine] | 72 | – |
| COc1nn2c(C)nnc2c2ccccc12 [Compound 3, 6-Methoxy-3-methyl-1,2,4-triazolo[3,4-a]phthalazine] | 82 | 11 |
| c1ccc2c(c1)cnn1cnnc21 [Compound 10, 1,2,4-Triazolo[3,4-a]phthalazine] | – | 52 |
| [2H]C([2H])([2H])c1nnc2c3ccccc3cnn12 [Compound 7, 3-D3-Methyl-1,2,4-triazolo[3,4-a]phthalazine] | 43 | 9 |
| c1ccc2c(c1)cnn1nnnc21 [Compound 1, Tetrazolo[5,1-a]phthalazine] | 57 | 78 |
| c1nn2nnnc2c2cscc12 [Compound 17, Tetrazolo[1,5-b]thieno[3,4-d]pyridazine] | 34 | 16 |
| Cc1nnc2c3ccc(C(F)(F)F)cc3cnn12 [Compound 36, 3-Methyl-8-(trifluoromethyl)-[1,2,4]triazolo[3,4-a]phthalazine] | – | 68 |
